This assay deals with formation of C3-C5 alcohols. In words: Inhibition of C3-C5 alcohols formation in alcohol fermentation by yeast. It counts as cell-based. The conditions noted are these: for effect on formation of C3-C5 alcohols: present in the substrate in addition to valine, leucine and isoleucine; for inhibition constant: formation of C3-C5 alcohols in alcohol fermentation. As to the method:
Formation of C3-C5 alcohols is a result of active functioning of the process of deamination of amino acids in the yeast cells with formation of free ammonia. […] The yield of C3-C5 alcohols reached 3.1% of ethanol when pure valine, isoleucine, and leucine were the sole source of nitrogen nutrition of the yeast in the inventive fermentation process. Moreover, the maximum formation of C3-C5 alcohols in the inventive process of alcohol fermentation occurred at pH=6.0 of the medium and at 38° C. (standard conditions of alcohol fermentation pH 4.5-5.5; temperature 28-34° C.).

The mark [1] stands for this setting: system with leucine as amino acid.

As for `N` [ammonium ions], the “effect on formation of C3-C5 alcohols” value is “inhibits formation of C3-C5 alcohols”. In turn, `N.N.O=S(=O)(O)O` [ammonium sulphate] came in with an inhibition constant under setting [1] of 750 mg/L. As to `NC(=O)C[C@H](N)C(=O)O` [asparagine], the “effect on formation of C3-C5 alcohols” value is “inhibits formation of C3-C5 alcohols”. Under setting [1], this compound came in with an inhibition constant of 730 mg/L. Also, the inhibition constant (system with valine as amino acid) amounted to 650 mg/L.

Values taken from patent publication US20150064763A1, “Method for Producing Hydrocarbons and Oxygen-containing Compounds from Biomass” (SWEDISH BIOFUELS AB, priority 2003, published 2015).
